Test results taken from patent publication US10273226B2, “Pyrazolyl-heteroarylamides as pesticides” (Bayer Animal Health GmbH, priority 2014, dated 2019).

Assays:
Type in all cases: in vivo
Tetranychus urticae = Tetranychus urticae spray test, OP-resistant; conditions: application rate 100 g/ha; after 6 days
In short: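 Percent kill is assessed 6 days after spraying infested Phaseolus vulgaris leaf discs, with all mite stages present. Compound is applied as a solvent/emulsifier aqueous formulation at the desired concentration.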

Rhipicephalus sanguineus = Rhipicephalus sanguineus in vitro contact test with adult brown dog ticks; conditions: application rate 5 μg/cm^2 (500 g/ha); after 48 h; ticks dead or moribund
In short: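 Test tubes (25 ml) were coated by dissolving active ingredient in acetone p.a., diluting to the required concentration, and spreading 250 μl over the inner walls and base on an orbital shaker at 30 rpm for 2 h. Once dry, 5-10 adult Rhipicephalus sanguineus were added, and tubes were capped with perforated lids and kept horizontal in darkness at room temperature. At 48 h, ticks were knocked down and heated at 45-50° C. for up to 5 min. Those unable to climb away were counted dead or moribund, and efficacy ran from 0% to 100%.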

Lucilia cuprina = Lucilia cuprina test; conditions: application rate 100 ppm; L1 larvae; after 2 days
In short: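 Mortality read at 2 days as percent larvae killed (100% = all, 0% = none). Test used roughly 20 first-instar larvae on minced horsemeat dosed with water-diluted DMSO formulation of compound.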

Phaedon cochleariae = Phaedon cochleariae spray test; conditions: application rate 100 g/ha; larvae; after 7 days
In short: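 Mortality of Phaedon larvae, in %, was read 7 days after release onto sprayed, dried Brassica pekinensis leaf discs. Test dilutions were prepared in water with 1000 ppm emulsifier. A score of 0% means no larvae died and 100% means all were killed.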

Cn1nc(C(F)(F)C(F)(F)F)c(C(F)(F)F)c1-n1cc(-c2cccc(NC(=O)c3ccncc3)c2)cn1 [Example 1-001, N-{3-[2′-Methyl-5′-(pentafluoroethyl)-4′-(trifluoromethyl)-2′H-1,3′-bipyrazol-4-yl]-phenyl}isonicotinamide]
100%: efficacy (Tetranychus urticae) | efficacy (Rhipicephalus sanguineus) | efficacy (kill in %) (Lucilia cuprina) | efficacy (Phaedon cochleariae)
